Data reported in ChEMBL document CHEMBL1201862, “PubChem BioAssay data set” (2004).
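Five concentrations, 48 hours, 96-well plates. Here, GI50 denotes the concentration required for 50% inhibition of growth.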 Active and inactive are the calls of the source. Cut-off read from the data, not from the text of the source: active = GI50 up to about 1.1 µM and inactive = higher.

Assays:
Experiment in all cases: inhibition of tumour cell growth, NCI panel, 48 h
786-0 = tested on: 786-0
A498 = tested on: A498
A549 = tested on: A549
ACHN = tested on: ACHN
BT-549 = tested on: BT-549
CAKI-1 = tested on: CAKI-1
CCRF-CEM = tested on: CCRF-CEM
COLO 205 = tested on: COLO 205
DU-145 = tested on: DU-145
EKVX = tested on: EKVX
HCT-116 = tested on: HCT-116
HCT-15 = tested on: HCT-15
HL-60 = tested on: HL-60
HOP-62 = tested on: HOP-62
HOP-92 = tested on: HOP-92
HT-29 = tested on: HT-29
Hs-578T = tested on: Hs-578T
IGROV-1 = tested on: IGROV-1
K562 = tested on: K562
KM12 = tested on: KM12
LOX IMVI = tested on: LOX IMVI
M14 = tested on: M14
MCF7 = tested on: MCF7
MDA-MB-231 = tested on: MDA-MB-231
MDA-MB-435 = tested on: MDA-MB-435
MDA-N = tested on: MDA-N
Malme-3M = tested on: Malme-3M
NCI-H226 = tested on: NCI-H226
NCI-H23 = tested on: NCI-H23
NCI-H460 = tested on: NCI-H460
NCI-H522 = tested on: NCI-H522
NCI/ADR-RES = tested on: NCI/ADR-RES
OVCAR-3 = tested on: OVCAR-3
OVCAR-4 = tested on: OVCAR-4
OVCAR-5 = tested on: OVCAR-5
OVCAR-8 = tested on: OVCAR-8
PC-3 = tested on: PC-3
RPMI-8226 = tested on: RPMI-8226
RXF 393 = tested on: RXF 393
SF-268 = tested on: SF-268
SF-295 = tested on: SF-295
SF-539 = tested on: SF-539
SK-MEL-28 = tested on: SK-MEL-28
SK-MEL-2 = tested on: SK-MEL-2
SK-MEL-5 = tested on: SK-MEL-5
SK-OV-3 = tested on: SK-OV-3
SN12C = tested on: SN12C
SNB-19 = tested on: SNB-19
SNB-75 = tested on: SNB-75
SR = tested on: SR
SW-620 = tested on: SW-620
T47D = tested on: T47D
TK-10 = tested on: TK-10
U-251 = tested on: U-251
UACC-257 = tested on: UACC-257
UACC-62 = tested on: UACC-62
UO-31 = tested on: UO-31
HCC 2998 = tested on: HCC 2998
MOLT-4 = tested on: MOLT-4

CC(C)N(Cc1ccccc1)S(=O)(=O)c1nc(C(C)(C)C)n[nH]1
GI50 (786-0): > 100 µM (inactive) | GI50 (A498): > 100 µM (inactive) | GI50 (A549): > 100 µM (inactive) | GI50 (ACHN): > 100 µM (inactive) | GI50 (BT-549): > 100 µM (inactive) | GI50 (CAKI-1): > 100 µM (inactive) | GI50 (CCRF-CEM): > 100 µM (inactive) | GI50 (COLO 205): > 100 µM (inactive) | GI50 (DU-145): > 100 µM (inactive) | GI50 (EKVX): > 100 µM (inactive) | GI50 (HCT-116): > 100 µM (inactive) | GI50 (HCT-15): > 100 µM | GI50 (HL-60): 46.1 µM (inactive) | GI50 (HOP-62): > 100 µM (inactive) | GI50 (HOP-92): > 100 µM (inactive) | GI50 (HT-29): > 100 µM (inactive) | GI50 (Hs-578T): > 100 µM (inactive) | GI50 (IGROV-1): > 100 µM (inactive) | GI50 (K562): > 100 µM (inactive) | GI50 (KM12): > 100 µM (inactive) | GI50 (LOX IMVI): > 100 µM (inactive) | GI50 (M14): > 100 µM (inactive) | GI50 (MCF7): > 100 µM (inactive) | GI50 (MDA-MB-231): > 100 µM (inactive) | GI50 (MDA-MB-435): > 100 µM (inactive) | GI50 (MDA-N): > 100 µM (inactive) | GI50 (Malme-3M): > 100 µM (inactive) | GI50 (NCI-H226): > 100 µM (inactive) | GI50 (NCI-H23): > 100 µM (inactive) | GI50 (NCI-H460): > 100 µM (inactive) | GI50 (NCI-H522): > 100 µM (inactive) | GI50 (NCI/ADR-RES): > 100 µM (inactive) | GI50 (OVCAR-3): > 100 µM (inactive) | GI50 (OVCAR-4): > 100 µM (inactive) | GI50 (OVCAR-5): > 100 µM (inactive) | GI50 (OVCAR-8): > 100 µM (inactive) | GI50 (PC-3): > 100 µM (inactive) | GI50 (RPMI-8226): > 100 µM (inactive) | GI50 (RXF 393): > 100 µM (inactive) | GI50 (SF-268): > 100 µM (inactive) | GI50 (SF-295): > 100 µM (inactive) | GI50 (SF-539): > 100 µM (inactive) | GI50 (SK-MEL-28): > 100 µM (inactive) | GI50 (SK-MEL-2): > 100 µM (inactive) | GI50 (SK-MEL-5): > 100 µM (inactive) | GI50 (SK-OV-3): > 100 µM (inactive) | GI50 (SN12C): > 100 µM (inactive) | GI50 (SNB-19): > 100 µM (inactive) | GI50 (SNB-75): > 100 µM (inactive) | GI50 (SR): > 100 µM (inactive) | GI50 (SW-620): > 100 µM (inactive) | GI50 (T47D): 92 µM (inactive) | GI50 (TK-10): > 100 µM (inactive) | GI50 (U-251): > 100 µM (inactive) | GI50 (UACC-257): 44.9 µM (inactive) | GI50 (UACC-62): > 100 µM (inactive) | GI50 (UO-31): > 100 µM (inactive)

Nc1nc(-c2cccc([N+](=O)[O-])c2)cc(-c2cc(-c3cccc([N+](=O)[O-])c3)nc(N)n2)n1
GI50 (786-0): > 100 µM (inactive) | GI50 (A498): > 100 µM (inactive) | GI50 (A549): > 100 µM (inactive) | GI50 (ACHN): > 100 µM (inactive) | GI50 (BT-549): > 100 µM (inactive) | GI50 (CAKI-1): > 100 µM (inactive) | GI50 (COLO 205): > 100 µM (inactive) | GI50 (DU-145): > 100 µM (inactive) | GI50 (EKVX): > 100 µM (inactive) | GI50 (HCC 2998): > 100 µM (inactive) | GI50 (HCT-116): > 100 µM (inactive) | GI50 (HCT-15): > 100 µM | GI50 (HL-60): > 100 µM (inactive) | GI50 (HOP-62): > 100 µM (inactive) | GI50 (HOP-92): > 100 µM (inactive) | GI50 (HT-29): > 100 µM (inactive) | GI50 (Hs-578T): > 100 µM (inactive) | GI50 (IGROV-1): > 100 µM (inactive) | GI50 (K562): > 100 µM (inactive) | GI50 (KM12): > 100 µM (inactive) | GI50 (LOX IMVI): > 100 µM (inactive) | GI50 (M14): > 100 µM (inactive) | GI50 (MCF7): > 100 µM (inactive) | GI50 (MDA-MB-231): > 100 µM (inactive) | GI50 (MDA-MB-435): > 100 µM (inactive) | GI50 (MDA-N): > 100 µM (inactive) | GI50 (MOLT-4): > 100 µM (inactive) | GI50 (Malme-3M): > 100 µM (inactive) | GI50 (NCI-H226): > 100 µM (inactive) | GI50 (NCI-H23): > 100 µM (inactive) | GI50 (NCI-H460): > 100 µM (inactive) | GI50 (NCI-H522): > 100 µM (inactive) | GI50 (NCI/ADR-RES): > 100 µM (inactive) | GI50 (OVCAR-3): > 100 µM (inactive) | GI50 (OVCAR-4): > 100 µM (inactive) | GI50 (OVCAR-5): > 100 µM (inactive) | GI50 (OVCAR-8): > 100 µM (inactive) | GI50 (PC-3): > 100 µM (inactive) | GI50 (RPMI-8226): > 100 µM (inactive) | GI50 (RXF 393): > 100 µM (inactive) | GI50 (SF-268): > 100 µM (inactive) | GI50 (SF-295): > 100 µM (inactive) | GI50 (SF-539): > 100 µM (inactive) | GI50 (SK-MEL-28): > 100 µM (inactive) | GI50 (SK-MEL-2): > 100 µM (inactive) | GI50 (SK-MEL-5): > 100 µM (inactive) | GI50 (SK-OV-3): > 100 µM (inactive) | GI50 (SN12C): > 100 µM (inactive) | GI50 (SNB-19): > 100 µM (inactive) | GI50 (SR): > 100 µM (inactive) | GI50 (SW-620): > 100 µM (inactive) | GI50 (T47D): > 100 µM (inactive) | GI50 (TK-10): > 100 µM (inactive) | GI50 (U-251): > 100 µM (inactive) | GI50 (UACC-257): > 100 µM (inactive) | GI50 (UACC-62): > 100 µM (inactive) | GI50 (UO-31): > 100 µM (inactive)

Cn1c(=O)c2c(nc3n(Cc4ccccc4)c(=O)c(NCCBr)cn23)n(C)c1=O
GI50 (786-0): 19.3 µM (inactive) | GI50 (A498): 34.9 µM (inactive) | GI50 (A549): 29.6 µM (inactive) | GI50 (ACHN): 15.4 µM (inactive) | GI50 (BT-549): 28.4 µM (inactive) | GI50 (CAKI-1): 18.5 µM (inactive) | GI50 (CCRF-CEM): 45.5 µM (inactive) | GI50 (COLO 205): 49.1 µM (inactive) | GI50 (DU-145): 27.8 µM (inactive) | GI50 (EKVX): 18.5 µM (inactive) | GI50 (HCC 2998): 16.1 µM (inactive) | GI50 (HCT-116): 28.8 µM (inactive) | GI50 (HCT-15): 34.8 µM | GI50 (HL-60): 38.8 µM (inactive) | GI50 (HOP-62): 18.8 µM (inactive) | GI50 (HOP-92): 12 µM (inactive) | GI50 (HT-29): 41.2 µM (inactive) | GI50 (Hs-578T): 29 µM (inactive) | GI50 (IGROV-1): 33 µM (inactive) | GI50 (K562): 46 µM (inactive) | GI50 (KM12): 63.5 µM (inactive) | GI50 (LOX IMVI): 28.4 µM (inactive) | GI50 (M14): 33.1 µM (inactive) | GI50 (MCF7): 24.4 µM (inactive) | GI50 (MDA-MB-231): 26.5 µM (inactive) | GI50 (MDA-MB-435): 49.5 µM (inactive) | GI50 (MDA-N): 57.3 µM (inactive) | GI50 (MOLT-4): 45.6 µM (inactive) | GI50 (NCI-H226): 19.9 µM (inactive) | GI50 (NCI-H23): 40.4 µM (inactive) | GI50 (NCI-H460): 26.9 µM (inactive) | GI50 (NCI-H522): 22.2 µM (inactive) | GI50 (NCI/ADR-RES): 21.8 µM (inactive) | GI50 (OVCAR-3): 19.1 µM (inactive) | GI50 (OVCAR-4): 16.3 µM (inactive) | GI50 (OVCAR-5): 28.4 µM (inactive) | GI50 (OVCAR-8): 14.7 µM (inactive) | GI50 (PC-3): 20.1 µM (inactive) | GI50 (RPMI-8226): 23.8 µM (inactive) | GI50 (RXF 393): 14.9 µM (inactive) | GI50 (SF-268): 25.8 µM (inactive) | GI50 (SF-295): 21.9 µM (inactive) | GI50 (SK-MEL-28): 53.5 µM (inactive) | GI50 (SK-MEL-2): 17.2 µM (inactive) | GI50 (SK-MEL-5): 26.2 µM (inactive) | GI50 (SK-OV-3): 25.3 µM (inactive) | GI50 (SN12C): 32.6 µM (inactive) | GI50 (SNB-19): 30.4 µM (inactive) | GI50 (SNB-75): 20 µM (inactive) | GI50 (SR): 6.43 µM (inactive) | GI50 (SW-620): 90.6 µM (inactive) | GI50 (T47D): 21.1 µM (inactive) | GI50 (TK-10): 16.3 µM (inactive) | GI50 (U-251): 30.4 µM (inactive) | GI50 (UACC-257): 25.7 µM (inactive) | GI50 (UACC-62): 26.5 µM (inactive) | GI50 (UO-31): 13 µM (inactive)
